Counter-ions that a name gives are not always drawn.

This is an account of results in patent publication US5348980A, “Enantiomers derived from (S)-2-amino-2-(3,4-dichlorobenzyl)-1-propanol, their use and method of preparation” (Institute de Recherche Jouveinal, priority 1992, dated 1994).

Type in all cases: in vivo, guinea pigs
In test [1] the test system is bronchoconstriction caused by 100 μmol/kg of histamine. The test can be described thus: Histamine-induced bronchoconstriction test (Konzett and Rossler), i.v. administration. As to conditions: for ED50: Cavia porcellus, iv. From the text: (§1) Furthermore, the antihistaminic properties were studied in guinea pigs by the bronchoconstriction test performed according to the method of H. Konzett and R. Rossler (Arch. Exp. Path. Pharmak.--Naunym Schmiedeberg - 195, 71-74, 1940).
(§2) The products of the invention were studied in this test after administration in solution or in suspension via the intravenous and intraduodenal routes, and also in powder form via the intranasal route.
(§3) Irrespective of the administration route, the preparation of the animals employed in the test consists in first anesthetizing male guinea pigs weighing 350 to 400 g by intraperitoneal (i.p.) injection of a sterile and isotonic solution containing 25% (w/v.) of ethyl carbamate on the basis of 6.0 ml/kg, and in then fitting the animals with a tracheal cannula to permit measurement of the pulmonary pressure, a cannula in the right jugular vein for the intravenous (i.v.) administration of solution, and also a cannula in the left carotid artery for qualitative observation of the blood pressure.
(§4) The animals are then connected to a pump (Harvard, ref. 50-1718) in order to maintain an artificial ventilation at a frequency of 60 insufflations per minute; the intratracheal pressure is recorded by an assembly comprising a transducer, an amplifier and a recorder (Gould, respective refs.: PLOEZ, 13-4615-50 and 8188-G4400-06).
(§5) Fitted in this way, the animals are left undisturbed for 10 minutes before the beginning of the actual experiment, which is carried out in different ways according to the administration route envisaged.
(§6) In base form, the test products are dissolved in an isotonic solution (0.9% NaCl) containing 10% (v/v) of Transcutol (R). Dilutions are performed by adding isotonic solution. In salt, in particular hydrochloride, form, the solutions are prepared in the isotonic solution.
(§7) The treatment of the animals consists of a series of administrations of histamine dihydrochloride solution on the basis of 100 μmol/kg before and after treatment with the solution of test product, which is carried out according to the following time schedule:
(§8) t=-20 minutes - histamine (100 μmol/kg)
(§9) t=-10 minutes - ditto control
(§10) t=0 - injection of the test product
(§11) t=+10 minutes - histamine (100 μmol/kg)
(§12) - Calculation and expression of the results:
(§13) For each administration route and for each time of administration of histamine, the activity of the products is expressed as the percentage change in amplitude of bronchoconstriction, calculated relative to that produced by the "control" administration of histamine which precedes the administration of the test product. The % change is calculated according to the formula: [formula] in which: Bc(tx) represents the amplitude of the bronchoconstriction in mm at time x,
(§14) Bo(tx) the amplitude of the base-line respiration in mm at time x,
(§15) Bc(to) and Bo(to) the corresponding amplitudes in mm on receipt of the "control" administration of histamine which precedes that of the test product.
(§16) The inhibitory activity of the test products on histamine-induced bronchoconstriction is expressed at different times of the studies as their ED50, which is the effective dose of product, expressed in μmol/kg, capable of inhibiting 50% of the histamine-induced bronchoconstriction at the time in question.
(§17) Failing this expression, the results are expressed as a % change at the time in question and for a given concentration of the test product. Under these conditions, a positive percentage corresponds to a potentiating effect on bronchoconstriction and, conversely, a negative percentage to an inhibitory effect.
(§18) Statistical analyses of the results were carried out by the Student t test. A value of p<0.05 is considered significant.
(§19) The compounds of the invention described in Examples 1 and 2 were employed in these tests. In addition, as a comparative product for the eutomer of Example 1, the racemic (R,S) compound corresponding to it, and which is described and prepared in Example 7 of U.S. Pat. No. 4,994,617, was employed. […]

Test [2] shares this test system. The test can be described thus: Histamine-induced bronchoconstriction test (Konzett and Rossler), intraduodenal (i.d.) administration. Particulars: for ED50: Cavia porcellus.
Description: as §1, §2, §3, §4, §5
In base form, the test products are suspended in a solution containing 1% w/v of carboxymethylcellulose (CMC), and, in salt form, they are dissolved in an isotonic solution before being administered via a cannula whose end is placed in the animal's duodenum.
The time schedule for the successive administrations of histamine via the i.v. route and that for the test solution via the i.d. route are identical to that described above in a).
as §12, §13, §14, §15, §16, §17, §18, §19

Test [3] has as its system bronchoconstriction caused by 100 nmol/kg of histamine. Briefly: Histamine-induced bronchoconstriction test (Konzett and Rossler), intranasal-powder (In.P.) administration. As to conditions: Cavia porcellus, 5 min, t = 5 min, read-out: ED50 at t = 5 min, inhibition of histamine-induced bronchoconstriction. From the text: Furthermore, the antihistaminic properties were studied in guinea pigs by the bronchoconstriction test performed according to the method of H. Konzett and R. Rossler (Arch. Exp. Path. Pharmak.--Naunym Schmiedeberg - 195, 71-74, 1940). The products of the invention were studied in this test after administration in solution or in suspension via the intravenous and intraduodenal routes, and also in powder form via the intranasal route. Irrespective of the administration route, the preparation of the animals employed in the test consists in first anesthetizing male guinea pigs weighing 350 to 400 g by intraperitoneal (i.p.) injection of a sterile and isotonic solution containing 25% (w/v.) of ethyl carbamate on the basis of 6.0 ml/kg, and in then fitting the animals with a tracheal cannula to permit measurement of the pulmonary pressure, a cannula in the right jugular vein for the intravenous (i.v.) administration of solution, and also a cannula in the left carotid artery for qualitative observation of the blood pressure. The animals are then connected to a pump (Harvard, ref. 50-1718) in order to maintain an artificial ventilation at a frequency of 60 insufflations per minute; the intratracheal pressure is recorded by an assembly comprising a transducer, an amplifier and a recorder (Gould, respective refs.: PLOEZ, 13-4615-50 and 8188-[…]-06). Fitted in this way, the animals are left undisturbed for 10 minutes before the beginning of the actual experiment, which is carried out in different ways according to the administration route envisaged. c) intranasal-powder (In.p) administration The test product is administered via a nasal insufflation of a powder consisting of 20 mg of lactose loaded with the appropriate quantity of the test product. Before this insufflation, the artificial ventilation of the animal is momentarily stopped in order to facilitate the pulmonary penetration of the compound. […] Failing this expression, the results are expressed as a % change at the time in question and for a given concentration of the test product. […]

The test system of test [4] is bronchoconstriction caused by histamine. The test can be described thus: Histamine-induced bronchoconstriction test (Konzett and Rossler), i.v. administration. Particulars: 3.5 μmol/kg, t = 10', statistically nonsignificant.
Description: as §1, §2, §3, §4, §5, §6, §7, §8, §9, §10, §11, §12, §13, §14, §15, §16, §17, §18, §19

[5] abbreviates: 10 min, t = 10', read-out: ED50, inhibition of histamine-induced bronchoconstriction, t = 10'.
Where [6] appears, read: 20 min, t = 20', read-out: ED50, inhibition of histamine-induced bronchoconstriction, t = 20'.
Where [7] appears, read: 0.5 h, t = 30', read-out: ED50, inhibition of histamine-induced bronchoconstriction, t = 30'.
The mark [8] stands for this setting: 40 min, t = 40', read-out: ED50, inhibition of histamine-induced bronchoconstriction, t = 40'.
Where [9] appears, read: 50 min, t = 50', read-out: ED50, inhibition of histamine-induced bronchoconstriction, t = 50'.
The mark [10] stands for this setting: 1 h, t = 60', read-out: ED50, inhibition of histamine-induced bronchoconstriction, t = 60'.
Where [11] appears, read: 3.5 μmol/kg, t = 20', statistically nonsignificant.
Setting [12] is: 3.5 μmol/kg, t = 30', statistically nonsignificant.
The mark [13] stands for this setting: 3.5 μmol/kg, t = 40', statistically nonsignificant.
Where [14] appears, read: 3.5 μmol/kg, t = 50', statistically nonsignificant.
Where [15] appears, read: 3.5 μmol/kg, t = 60', statistically nonsignificant.

In general, ED50 refers to the midpoint of the dose-response relation. Turning to `C=CCN[C@](C)(CO)Cc1ccc(Cl)c(Cl)c1` [Example 1, (S)-(-)-N-allyl-2-amino-2-(3,4-dichlorobenzyl)-1-propanol], the ED50 is 4.89 µmol/kg in test [1] (setting [5]); 2.88 µmol/kg in test [1] (setting [6]); 2.54 µmol/kg in test [1] (setting [7]); 2.58 µmol/kg in test [1] (setting [8]); 3.17 µmol/kg in test [1] (setting [9]); 3.55 µmol/kg in test [1] (setting [10]). Besides, the ED50 was 1 µmol/kg in test [2] (setting [6]); 0.78 µmol/kg in test [2] (setting [7]); 0.69 µmol/kg in test [2] (setting [8]); 1.28 µmol/kg in test [2] (setting [9]); 2.17 µmol/kg in test [2] (setting [10]).

For the compound `O=C1NCC2(CCN(CCc3ccccc3)CC2)O1` [Fenspiride (INN). HCl], the ED50 in test [1] (setting [5]) was found to be 4.25 µmol/kg; in test [1] (setting [6]), 4.99 µmol/kg; in test [1] (setting [7]) it was 6.26 µmol/kg; in test [1] (setting [8]), 8.9 µmol/kg; in test [1] (setting [9]) it was 8.01 µmol/kg; in test [1] (setting [10]), 11 µmol/kg.

Turning to `CC1(C)Oc2ccc(C#N)cc2[C@H](N2CCCC2=O)[C@H]1O` (relative stereo) [Cromakalim (INN), reference compound], the ED50 in test [3] is 1.88 µmol/kg.

Consider `C=CCN(C)[C@@](C)(CO)Cc1ccc(Cl)c(Cl)c1` [Comparative distomer, (R)-(-)-N-allyl-2-methylamino-2-(3,4-dichlorobenzyl)-1-propanol, reference compound], for which the “effect on histamine activity (in words)” value in test [1] was “perceptibly though not significantly in statistical terms, a potentiating effect on histamine activity”; in test [2], “perceptibly though not significantly in statistical terms, a potentiating effect on histamine activity”. The “% potentiating effect on bronchoconstriction, t = 20'” value in test [1] (setting [11]) was “+18.4%”; in test [2] (setting [11]) it was “+14.6%”. The entries for the “% potentiating effect on bronchoconstriction, t = 30'” value in test [1] (setting [12]) and in test [2] (setting [12]) were “+28.2%” and “+32.4%”, respectively. Besides, the “% potentiating effect on bronchoconstriction, t = 40'” value in test [1] (setting [13]) was “+35.4%”; in test [2] (setting [13]) it was “+44.5%”. The figures for the “% potentiating effect on bronchoconstriction, t = 50'” value in test [1] (setting [14]) and in test [2] (setting [14]) were “+36.7%” and “+35.6%”, respectively. In addition, the “% potentiating effect on bronchoconstriction, t = 60'” value in test [1] (setting [15]) was “+41.1%”; in test [2] (setting [15]), “+30.0%”. Besides, the “% potentiating effect on bronchoconstriction, t = 10'” value in test [4] is recorded as “+6.3%”; in test [2] (3.5 μmol/kg, t = 10', statistically nonsignificant), “+5.8%”.

On to `C=CCN(C)C(C)(CO)Cc1ccc(Cl)c(Cl)c1` (racemic) [Comparative racemate. HCl], for which the ED50 was 3.72 µmol/kg in test [1] (setting [5]); 2.11 µmol/kg in test [1] (setting [6]); 1.88 µmol/kg in test [1] (setting [7]); 2.07 µmol/kg in test [1] (setting [8]); 2.34 µmol/kg in test [1] (setting [9]); 2.22 µmol/kg in test [1] (setting [10]).

Turning to `C=CCNC(C)(CO)Cc1ccc(Cl)c(Cl)c1` (racemic) [Comparative racemate], the ED50 stood at 6.65 µmol/kg in test [1] (setting [5]); 4.1 µmol/kg in test [1] (setting [6]); 4.38 µmol/kg in test [1] (setting [7]); 3.39 µmol/kg in test [1] (setting [8]); 3.02 µmol/kg in test [1] (setting [9]); 3.52 µmol/kg in test [1] (setting [10]).
